This note sets out measurements from ChEMBL document CHEMBL2150934, “Identification of a potent and metabolically stable series of fluorinated diphenylpyridylethanamine-based cholesteryl ester transfer protein inhibitors” (Bioorg Med Chem Lett, 2012).

Holding throughout (format): ADME, organism-based
Data set [1] in a line: AUC (0 to 8 hrs) in transgenic mouse expressing human CETP/apoB100 at 30 mg/kg, po. The arrangement: time < 8 hr, dose 30 mg/kg, route oral. The note with it: plasma.
A short description of data set [2]: Plasma concentration in transgenic mouse expressing human CETP/apoB100 at 30 mg/kg, po at 2 hrs. The arrangement: dose 30 mg/kg, route oral.
Data set [3] can be described thus: Plasma concentration in transgenic mouse expressing human CETP/apoB100 at 30 mg/kg, po at 4 hrs. Also on record: dose 30 mg/kg, route oral.
Data set [4] in a line: Plasma concentration in transgenic mouse expressing human CETP/apoB100 at 30 mg/kg, po at 8 hrs. Also on record: dose 30 mg/kg, route oral.

Turning to `O=C(N[C@@H]1CCC(F)(F)C1)N[C@@](Cc1ccccc1)(c1cc(F)cc(OC(F)(F)C(F)F)c1)c1ccc(Cl)cn1`, the AUC(0-t) at 8 h in data set [1] amounted to 3.2 µM·h. The same compound returned a concentration at 2 h in data set [2] of 1070 nM. The compound also registered a concentration at 4 h in data set [3] of 249 nM. The concentration at 8 h in data set [4] worked out at 112 nM.

In general, AUC(0-t) refers to the area under the concentration-time curve up to a stated or last time point. Low values mean low exposure, high ones high exposure.
